{"source": "paper PMC5007552", "about": "“The hVps34‐SGK3 pathway alleviates sustained PI3K/Akt inhibition by stimulating mTORC1 and tumour growth” (The EMBO Journal, 2016)", "tested_on": "ZR-75-1 cells", "assay": "Immunoblot of Akt/mTORC1 pathway markers (Akt, PRAS40, TSC2, S6K1, Rictor, S6, 4EBP1) in ZR-75-1 cells", "format": "cell-based, human", "experimental": "Kinase reactions are presented as means ± SD for triplicate reaction. Immunoprecipitates (IP) were also analysed by immunoblot with the indicated antibodies. • SGK3 was knocked down in ZR‐75‐1 cells by using shRNA probe B and compared to a control shRNA probe, named sh scramble. After infection, the cells were kept for 2 days in puromycin selection media and then seeded for the experiment. The cells were treated with 1 μM MK‐2206 for 1 h or 5 days. The cell lysates were subjected to immunoblot analysis with the indicated antibodies.\nThe cell lysates were analysed by immunoblot using the antibody against phosphorylated Akt phosphorylation consensus motif (RxRxxpS/pT).\nHEK293 cells were purchased from the American Tissue Culture Collection (ATCC). Cells were cultured in RPMI or DMEM media supplemented with 10% (v/v) foetal bovine serum, 2 mM L‐glutamine, 100 U/ml penicillin and 0.1 mg/ml streptomycin. Inhibitor treatments were carried out as described in figure legends. During 5 days inhibitor treatments, the media was changed after 72‐h intervals. The cells were lysed in buffer containing 50 mM Tris–HCl (pH 7.5), 150 mM NaCl, 1 mM EDTA, 1 mM EGTA, 1 mM sodium orthovanadate, 10 mM sodium glycerophosphate, 10 mM sodium pyrophosphate, 0.27 M sucrose, 0.1% (v/v) 2‐mercaptoethanol, 1 mM benzamidine and 0.1 mM PMSF. Lysates were clarified by centrifugation at 16,000 g for 10 min at 4°C. Protein concentration was calculated using Bradford assay (Thermo Scientific). Immunoblotting and immunoprecipitation were performed using standard procedures. The signal was developed using ECL Western Blotting Detection Kit (Amersham) on Amersham Hyperfilm ECL film (Amersham).", "key": {"[1]": {"details": "1–3 μM 14h, 1 h, ZR-75-1 in serum"}, "[2]": {"details": "ZR-75-1, 5 days GDC0941 or MK-2206, then 3 μM 14h 1 h"}}, "data": [{"molecule": "Nc1n[nH]c2nc(-c3ccc(NS(=O)(=O)c4cc(Cl)ccc4Cl)cc3)cnc12", "note": "[14h]", "values": [{"measurement": "S6K1 and S6 protein phosphorylation", "setting": "10 μM 14h, 1 h, ZR-75-1 in serum", "result": "moderate reduction"}, {"measurement": "PRAS40 (Akt-specific substrate) phosphorylation", "setting": "[1]", "result": "not dephosphorylated"}, {"measurement": "Rictor (Thr1135) and S6 protein (Ser240/244) phosphorylation", "setting": "[1]", "result": "failed to significantly inhibit"}, {"measurement": "4EBP1 phosphorylation", "setting": "[2]", "result": "not markedly reduced"}, {"measurement": "TSC2 phosphorylation", "setting": "[2]", "result": "suppressed phosphorylation of TSC2"}, {"measurement": "TSC2, S6K1, Rictor, S6 protein or 4EBP1 phosphorylation or S6K1 activity", "setting": "ZR-75-1 in serum without prolonged PI3K or Akt inhibitor treatment, 3 μM 14h", "result": "did not inhibit"}]}]}
